ChEMBL document CHEMBL3885861, “Open TG-GATES”

Species: Rattus norvegicus
Test: Open TG-GATES - Regimen: Daily Repeat
Assay type: toxicity, organism-based, Sprague-Dawley
Set-up: regimen Daily Repeat, gender Male, age 6 weeks
Details: in vivo, po, route gavage; for APTT / Bas / Eos / Fbg / Hb / Ht / Lym / MCH / MCHC / MCV / Mono / Neu / PT / Plat / RBC / Ret / WBC: tissue Blood; for KIDNEY_L / KIDNEY_R / KIDNEY_TOTAL: tissue Kidney; for LIVER: tissue Liver; for ALP / ALT / BUN / CRE / Ca / DBIL / GLC / K / LDH / Na / PL / RALB / TBIL / TC / TG / TP / gamma-GTP / AST: tissue Plasma
[1] = 60 mg/kg, 72 h, dose level Middle, time 3 day
[2] = 60 mg/kg, […], dose level Middle, time 7 day
[3] = 60 mg/kg, […], dose level Middle, time 14 day
[4] = 60 mg/kg, […], dose level Middle, time 28 day
[5] = 200 mg/kg, 72 h, dose level High, time 3 day
[6] = 200 mg/kg, […], dose level High, time 7 day
[7] = 200 mg/kg, […], dose level High, time 14 day
[8] = 200 mg/kg, […], dose level High, time 28 day

CCCCc1oc2ccccc2c1C(=O)c1cc(I)c(OCCN(CC)CC)c(I)c1 [AMIODARONE]
TERMINAL_BW [1]: 226.1 g | APTT [1]: 18.2 s | Bas [1]: 0% | Eos [1]: 1.2% | Fbg [1]: 225.8 mg/dL | Hb [1]: 13.5 g/dL | Ht [1]: 39.6% | Lym [1]: 79.2% | MCH [1]: 21.1 pg | MCHC [1]: 34.1% | MCV [1]: 62.1 fL | Mono [1]: 2.6% | Neu [1]: 15.8% | PT [1]: 12.8 s | Plat [1]: 127.1 x10_4/uL | RBC [1]: 637.8 x10_4/ul | Ret [1]: 5.5% | WBC [1]: 99.3 x10_2/uL | KIDNEY_L [1]: 1 g | KIDNEY_R [1]: 1 g | KIDNEY_TOTAL [1]: 2.1 g | LIVER [1]: 11 g | ALP [1]: 1120.2 IU/L | ALT [1]: 37.8 IU/L | BUN [1]: 16 mg/dL | CRE [1]: 0.3 mg/dL | Ca [1]: 10.7 mg/dL | DBIL [1]: 0.096 mg/dL | GLC [1]: 196.6 mg/dL | K [1]: 3.8 meq/L | LDH [1]: 194.6 IU/L | Na [1]: 140.8 meq/L | PL [1]: 147 mg/dL | RALB [1]: 3.4 g/dL | TBIL [1]: 0.1 mg/dL | TC [1]: 73.8 mg/dL | TG [1]: 101.8 mg/dL | TP [1]: 5.5 g/dL | gamma-GTP [1]: 1 IU/L | TERMINAL_BW [2]: 259.8 g | TERMINAL_BW [3]: 302.6 g | TERMINAL_BW [4]: 385.9 g | APTT [2]: 17.9 s | Bas [2]: 0% | Eos [2]: 1% | Fbg [2]: 216.8 mg/dL | Hb [2]: 13 g/dL | Lym [2]: 76.2% | MCH [2]: 20.9 pg | MCHC [2]: 34.1% | Mono [2]: 3.2% | Neu [2]: 18.6% | PT [2]: 12.3 s | Plat [2]: 132.6 x10_4/uL | RBC [2]: 622.6 x10_4/ul | Ret [2]: 5.4% | WBC [2]: 103.2 x10_2/uL | APTT [3]: 20.8 s | Bas [3]: 0% | Eos [3]: 0.4% | Fbg [3]: 214.4 mg/dL | Hb [3]: 14.4 g/dL | Ht [3]: 41.1% | Lym [3]: 79% | MCH [3]: 20.9 pg | MCHC [3]: 35% | MCV [3]: 59.7 fL | Mono [3]: 2.2% | Neu [3]: 17.4% | Plat [3]: 115.4 x10_4/uL | RBC [3]: 688.2 x10_4/ul | Ret [3]: 4.3% | WBC [3]: 115.1 x10_2/uL | APTT [4]: 20.6 s | Bas [4]: 0% | Eos [4]: 1% | Fbg [4]: 218.6 mg/dL | Ht [4]: 42.1% | Lym [4]: 78.2% | MCH [4]: 19.7 pg | MCHC [4]: 35% | MCV [4]: 56.3 fL | Mono [4]: 2.6% | Neu [4]: 17% | Plat [4]: 111.2 x10_4/uL | RBC [4]: 748.8 x10_4/ul | Ret [4]: 2.8% | WBC [4]: 115.2 x10_2/uL | KIDNEY_L [2]: 1.2 g | KIDNEY_R [2]: 1.1 g | KIDNEY_TOTAL [2]: 2.3 g | KIDNEY_L [3]: 1.2 g | KIDNEY_R [3]: 1.2 g | KIDNEY_TOTAL [3]: 2.3 g | KIDNEY_L [4]: 1.3 g | KIDNEY_R [4]: 1.3 g | KIDNEY_TOTAL [4]: 2.7 g | LIVER [3]: 13.8 g | LIVER [4]: 16.9 g | ALP [2]: 981 IU/L | ALT [2]: 34.8 IU/L | AST [2]: 60 IU/L | BUN [2]: 17.4 mg/dL | CRE [2]: 0.3 mg/dL | Ca [2]: 10.5 mg/dL | DBIL [2]: 0.1 mg/dL | GLC [2]: 208 mg/dL | K [2]: 4 meq/L | LDH [2]: 174.8 IU/L | Na [2]: 140.2 meq/L | PL [2]: 166.8 mg/dL | RALB [2]: 3.3 g/dL | TBIL [2]: 0.2 mg/dL | TC [2]: 90.8 mg/dL | TG [2]: 98.6 mg/dL | TP [2]: 5.5 g/dL | gamma-GTP [2]: 0.8 IU/L | ALP [3]: 996.2 IU/L | ALT [3]: 41.4 IU/L | AST [3]: 64.6 IU/L | BUN [3]: 16.6 mg/dL | CRE [3]: 0.4 mg/dL | Ca [3]: 10.6 mg/dL | DBIL [3]: 0.086 mg/dL | GLC [3]: 224.6 mg/dL | K [3]: 3.5 meq/L | LDH [3]: 174.6 IU/L | Na [3]: 140.4 meq/L | PL [3]: 171.6 mg/dL | RALB [3]: 3.4 g/dL | TBIL [3]: 0.1 mg/dL | TC [3]: 90.4 mg/dL | TG [3]: 102 mg/dL | TP [3]: 5.9 g/dL | gamma-GTP [3]: 1.8 IU/L | ALP [4]: 803.2 IU/L | ALT [4]: 34.4 IU/L | AST [4]: 56.4 IU/L | BUN [4]: 18 mg/dL | CRE [4]: 0.5 mg/dL | Ca [4]: 10.4 mg/dL | DBIL [4]: 0.098 mg/dL | GLC [4]: 192.6 mg/dL | K [4]: 3.7 meq/L | LDH [4]: 152.6 IU/L | Na [4]: 141 meq/L | PL [4]: 167.2 mg/dL | RALB [4]: 3.3 g/dL | TBIL [4]: 0.2 mg/dL | TC [4]: 86.6 mg/dL | TG [4]: 120 mg/dL | TP [4]: 6 g/dL | gamma-GTP [4]: 1.6 IU/L | TERMINAL_BW [5]: 204.2 g | APTT [5]: 27.3 s | Bas [5]: 0% | Eos [5]: 1.2% | Fbg [5]: 214.6 mg/dL | Hb [5]: 14.1 g/dL | Ht [5]: 40.9% | Lym [5]: 84.6% | MCH [5]: 20.9 pg | MCHC [5]: 34.4% | MCV [5]: 60.8 fL | Mono [5]: 3.2% | Neu [5]: 9.2% | PT [5]: 15.9 s | Plat [5]: 122.1 x10_4/uL | RBC [5]: 672.8 x10_4/ul | Ret [5]: 3.5% | WBC [5]: 70.5 x10_2/uL | KIDNEY_L [5]: 0.9 g | KIDNEY_R [5]: 0.9 g | KIDNEY_TOTAL [5]: 1.8 g | LIVER [5]: 9 g | ALP [5]: 1623.2 IU/L | BUN [5]: 14.2 mg/dL | CRE [5]: 0.3 mg/dL | Ca [5]: 10 mg/dL | DBIL [5]: 0.062 mg/dL | GLC [5]: 193.2 mg/dL | K [5]: 3.6 meq/L | LDH [5]: 222.2 IU/L | Na [5]: 140.2 meq/L | PL [5]: 181.6 mg/dL | RALB [5]: 3.4 g/dL | TBIL [5]: 0.1 mg/dL | TC [5]: 135 mg/dL | TG [5]: 33.2 mg/dL | TP [5]: 5.7 g/dL | gamma-GTP [5]: 0.8 IU/L | TERMINAL_BW [6]: 210.1 g | TERMINAL_BW [7]: 194.8 g | TERMINAL_BW [8]: 228 g | APTT [6]: 33.7 s | Bas [6]: 0% | Eos [6]: 0.8% | Fbg [6]: 202.2 mg/dL | Hb [6]: 14.6 g/dL | Ht [6]: 41.9% | Lym [6]: 82.8% | MCH [6]: 21.2 pg | MCHC [6]: 34.9% | MCV [6]: 60.7 fL | Mono [6]: 2.6% | Neu [6]: 13.2% | PT [6]: 17.5 s | Plat [6]: 127 x10_4/uL | RBC [6]: 690.2 x10_4/ul | Ret [6]: 1.4% | WBC [6]: 119 x10_2/uL | APTT [7]: 26.9 s | Bas [7]: 0% | Eos [7]: 0.8% | Fbg [7]: 180.2 mg/dL | Hb [7]: 16 g/dL | Ht [7]: 44.7% | Lym [7]: 68% | MCH [7]: 20 pg | MCHC [7]: 35.9% | MCV [7]: 55.6 fL | Mono [7]: 1.6% | Neu [7]: 29.6% | PT [7]: 15 s | Plat [7]: 109.5 x10_4/uL | RBC [7]: 803.6 x10_4/ul | Ret [7]: 0.8% | WBC [7]: 77.9 x10_2/uL | APTT [8]: 27.4 s | Bas [8]: 0% | Eos [8]: 0.8% | Fbg [8]: 215.8 mg/dL | Hb [8]: 15.6 g/dL | Ht [8]: 42.8% | Lym [8]: 64% | MCH [8]: 19 pg | MCHC [8]: 36.4% | MCV [8]: 52.2 fL | Mono [8]: 2% | Neu [8]: 32% | PT [8]: 17 s | Plat [8]: 159.1 x10_4/uL | RBC [8]: 819 x10_4/ul | Ret [8]: 2.1% | WBC [8]: 96 x10_2/uL | KIDNEY_L [6]: 0.9 g | KIDNEY_R [6]: 0.9 g | KIDNEY_TOTAL [6]: 1.9 g | KIDNEY_L [7]: 0.9 g | KIDNEY_R [7]: 0.9 g | KIDNEY_TOTAL [7]: 1.7 g | KIDNEY_L [8]: 0.9 g | KIDNEY_R [8]: 1 g | KIDNEY_TOTAL [8]: 1.9 g | LIVER [6]: 9.6 g | LIVER [7]: 9.1 g | ALP [6]: 1316.2 IU/L | ALT [6]: 31 IU/L | AST [6]: 56.4 IU/L | BUN [6]: 13.6 mg/dL | CRE [6]: 0.4 mg/dL | Ca [6]: 10 mg/dL | DBIL [6]: 0.068 mg/dL | GLC [6]: 184.4 mg/dL | K [6]: 4 meq/L | LDH [6]: 215.6 IU/L | Na [6]: 139.2 meq/L | PL [6]: 182.8 mg/dL | RALB [6]: 3.4 g/dL | TBIL [6]: 0.1 mg/dL | TC [6]: 144.8 mg/dL | TG [6]: 24.6 mg/dL | TP [6]: 5.8 g/dL | gamma-GTP [6]: 1.2 IU/L | ALP [7]: 1457.8 IU/L | ALT [7]: 44.8 IU/L | AST [7]: 59.8 IU/L | BUN [7]: 16.6 mg/dL | CRE [7]: 0.5 mg/dL | Ca [7]: 9.6 mg/dL | DBIL [7]: 0.064 mg/dL | GLC [7]: 200.8 mg/dL | K [7]: 3.6 meq/L | LDH [7]: 176.6 IU/L | Na [7]: 139.4 meq/L | PL [7]: 190.4 mg/dL | RALB [7]: 3.4 g/dL | TBIL [7]: 0.1 mg/dL | TC [7]: 163.4 mg/dL | TP [7]: 5.7 g/dL | gamma-GTP [7]: 1.6 IU/L | ALP [8]: 1315 IU/L | ALT [8]: 39.8 IU/L | AST [8]: 82 IU/L | BUN [8]: 15.5 mg/dL | CRE [8]: 0.5 mg/dL | Ca [8]: 9.4 mg/dL | DBIL [8]: 0.065 mg/dL | GLC [8]: 169 mg/dL | K [8]: 3.9 meq/L | LDH [8]: 184 IU/L | Na [8]: 139.8 meq/L | PL [8]: 177 mg/dL | RALB [8]: 3.3 g/dL | TBIL [8]: 0.1 mg/dL | TC [8]: 127.5 mg/dL | TG [8]: 26.5 mg/dL | TP [8]: 5.8 g/dL | gamma-GTP [8]: 1.2 IU/L
